Tested on: HUVEC/MSC spheroids viability
Test: Human HUVEC/MSC cell line growth inhibition [KRAS2];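 for viability, T/C: percent of DMSO vehicle control luminescence so 100% = untreated viability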
Conditions: for IC50: curve of first compound; for viability, T/C: stronger effect = lower value
Summary of the method: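 HUVEC + hMSC stromal spheroids only, no malignant cells; 37 °C, 5% CO2. Drugs singly and in pairs, half-log series down from clinical Cmax (max 10 microM if Cmax undetermined).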

[1] = second compound 0.0316 µM, first compound 0.0316 µM
[2] = second compound 0.0316 µM, first compound 0.1 µM
[3] = second compound 0.1 µM, first compound 0.0316 µM
[4] = second compound 0.1 µM, first compound 0.1 µM
[5] = second compound 0.316 µM, first compound 0.0316 µM
[6] = second compound 0.316 µM, first compound 0.1 µM
[7] = second compound 1 µM, first compound 0.0316 µM
[8] = second compound 1 µM, first compound 0.1 µM
[9] = second compound 3.16 µM, first compound 0.0316 µM
[10] = second compound 3.16 µM, first compound 0.1 µM
[11] = second compound 10 µM, first compound 0.0316 µM
[12] = second compound 10 µM, first compound 0.1 µM

Question: Which IC50 (second compound 0.0316 µM) does the source give for `Cn1nccc1Nc1nccc(-c2cc3c(s2)C(C)(C)N(CCN2CCOCC2)C3=O)n1` + CC1OCC2(CCN(c3cnc(Sc4ccnc(N)c4Cl)c(N)n3)CC2)C1N here?
Answer: Its IC50 is 2080 nM.

Question: What about the IC50 (second compound 0.1 µM) of the same compound?
Answer: Its IC50 is 2730 nM.

Question: What about the IC50 (second compound 0.316 µM) of the same compound?
Answer: Its IC50 is 2530 nM.

Question: What about the IC50 (second compound 1 µM) of the same compound?
Answer: The IC50 was 1740 nM.

Question: What about the IC50 (second compound 3.16 µM) of the same compound?
Answer: Its IC50 is 1350 nM.

Question: What about the IC50 (second compound 10 µM) of the same compound?
Answer: Its IC50 is 430 nM.

Question: And the viability, T/C [1]?
Answer: The viability, T/C was 105%.

Question: What about the viability, T/C [2] of the same compound?
Answer: Its viability, T/C is 127%.

Question: What about the viability, T/C (second compound 0.0316 µM, first compound 0.316 µM) of the same compound?
Answer: The viability, T/C was 108%.

Question: And the viability, T/C (second compound 0.0316 µM, first compound 1 µM)?
Answer: The viability, T/C was 78%.

Question: And the viability, T/C (second compound 0.0316 µM, first compound 3.16 µM)?
Answer: Its viability, T/C is 34.5%.

Question: And the viability, T/C (second compound 0.0316 µM, first compound 10 µM)?
Answer: Its viability, T/C is 7.19%.

Question: What about the viability, T/C [3] of the same compound?
Answer: Its viability, T/C is 117%.

Question: What about the viability, T/C [4] of the same compound?
Answer: Its viability, T/C is 127%.

Question: And the viability, T/C (second compound 0.1 µM, first compound 0.316 µM)?
Answer: The viability, T/C was 124%.

Question: What about the viability, T/C (second compound 0.1 µM, first compound 1 µM) of the same compound?
Answer: Its viability, T/C is 96.3%.

Question: And the viability, T/C (second compound 0.1 µM, first compound 3.16 µM)?
Answer: The viability, T/C was 43.8%.

Question: And the viability, T/C (second compound 0.1 µM, first compound 10 µM)?
Answer: Its viability, T/C is 6.82%.

Question: What about the viability, T/C [5] of the same compound?
Answer: Its viability, T/C is 112%.

Question: And the viability, T/C [6]?
Answer: The viability, T/C was 120%.

Question: What about the viability, T/C (second compound 0.316 µM, first compound 0.316 µM) of the same compound?
Answer: The viability, T/C was 105%.

Question: What about the viability, T/C (second compound 0.316 µM, first compound 1 µM) of the same compound?
Answer: The viability, T/C was 78.8%.

Question: What about the viability, T/C (second compound 0.316 µM, first compound 3.16 µM) of the same compound?
Answer: The viability, T/C was 44.2%.

Question: And the viability, T/C (second compound 0.316 µM, first compound 10 µM)?
Answer: Its viability, T/C is 5.45%.

Question: What about the viability, T/C [7] of the same compound?
Answer: Its viability, T/C is 95.9%.

Question: What about the viability, T/C [8] of the same compound?
Answer: The viability, T/C was 97.6%.

Question: And the viability, T/C (second compound 1 µM, first compound 0.316 µM)?
Answer: The viability, T/C was 107%.

Question: What about the viability, T/C (second compound 1 µM, first compound 1 µM) of the same compound?
Answer: The viability, T/C was 60.7%.

Question: What about the viability, T/C (second compound 1 µM, first compound 3.16 µM) of the same compound?
Answer: Its viability, T/C is 34.6%.

Question: And the viability, T/C (second compound 1 µM, first compound 10 µM)?
Answer: Its viability, T/C is 4.73%.

Question: And the viability, T/C [9]?
Answer: The viability, T/C was 79.7%.

Question: And the viability, T/C [10]?
Answer: The viability, T/C was 90.2%.

Question: What about the viability, T/C (second compound 3.16 µM, first compound 0.316 µM) of the same compound?
Answer: Its viability, T/C is 80.3%.

Question: And the viability, T/C (second compound 3.16 µM, first compound 1 µM)?
Answer: The viability, T/C was 57.7%.

Question: And the viability, T/C (second compound 3.16 µM, first compound 3.16 µM)?
Answer: Its viability, T/C is 25.5%.

Question: What about the viability, T/C (second compound 3.16 µM, first compound 10 µM) of the same compound?
Answer: The viability, T/C was 8.64%.

Question: And the viability, T/C [11]?
Answer: Its viability, T/C is 73%.

Question: What about the viability, T/C [12] of the same compound?
Answer: The viability, T/C was 67.4%.

Question: What about the viability, T/C (second compound 10 µM, first compound 0.316 µM) of the same compound?
Answer: Its viability, T/C is 56.1%.

Question: And the viability, T/C (second compound 10 µM, first compound 1 µM)?
Answer: Its viability, T/C is 34.2%.

Question: And the viability, T/C (second compound 10 µM, first compound 3.16 µM)?
Answer: Its viability, T/C is 21.5%.

Question: What about the viability, T/C (second compound 10 µM, first compound 10 µM) of the same compound?
Answer: The viability, T/C was 4.23%.

Question: With `Cn1ncnc1[C@H]1c2n[nH]c(=O)c3cc(F)cc(c23)N[C@@H]1c1ccc(F)cc1` + CC1OCC2(CCN(c3cnc(Sc4ccnc(N)c4Cl)c(N)n3)CC2)C1N as the compound, how does the IC50 (second compound 0.0316 µM) read?
Answer: The IC50 was over 100 nM.

Question: And the IC50 (second compound 0.1 µM)?
Answer: Its IC50 is over 100 nM.

Question: What about the IC50 (second compound 0.316 µM) of the same compound?
Answer: The IC50 was over 100 nM.

Question: What about the IC50 (second compound 1 µM) of the same compound?
Answer: The IC50 was over 100 nM.

Question: What about the IC50 (second compound 3.16 µM) of the same compound?
Answer: The IC50 was over 100 nM.

Question: What about the IC50 (second compound 10 µM) of the same compound?
Answer: The IC50 was over 100 nM.

Question: And the viability, T/C (second compound 0.0316 µM, first compound 0.000316 µM)?
Answer: Its viability, T/C is 105%.

Question: And the viability, T/C (second compound 0.0316 µM, first compound 0.001 µM)?
Answer: The viability, T/C was 111%.

Question: What about the viability, T/C (second compound 0.0316 µM, first compound 0.00316 µM) of the same compound?
Answer: Its viability, T/C is 97.5%.

Question: What about the viability, T/C (second compound 0.0316 µM, first compound 0.01 µM) of the same compound?
Answer: Its viability, T/C is 86.9%.

Question: And the viability, T/C [1]?
Answer: The viability, T/C was 90.8%.

Question: What about the viability, T/C [2] of the same compound?
Answer: The viability, T/C was 89.7%.

Question: What about the viability, T/C (second compound 0.1 µM, first compound 0.000316 µM) of the same compound?
Answer: Its viability, T/C is 87.9%.

Question: What about the viability, T/C (second compound 0.1 µM, first compound 0.001 µM) of the same compound?
Answer: Its viability, T/C is 114%.

Question: And the viability, T/C (second compound 0.1 µM, first compound 0.00316 µM)?
Answer: The viability, T/C was 99.9%.

Question: And the viability, T/C (second compound 0.1 µM, first compound 0.01 µM)?
Answer: Its viability, T/C is 75.7%.

Question: And the viability, T/C [3]?
Answer: Its viability, T/C is 93.2%.

Question: What about the viability, T/C [4] of the same compound?
Answer: Its viability, T/C is 95.6%.

Question: What about the viability, T/C (second compound 0.316 µM, first compound 0.000316 µM) of the same compound?
Answer: The viability, T/C was 80%.

Question: And the viability, T/C (second compound 0.316 µM, first compound 0.001 µM)?
Answer: The viability, T/C was 111%.

Question: What about the viability, T/C (second compound 0.316 µM, first compound 0.00316 µM) of the same compound?
Answer: The viability, T/C was 98.5%.

Question: What about the viability, T/C (second compound 0.316 µM, first compound 0.01 µM) of the same compound?
Answer: Its viability, T/C is 96.9%.

Question: What about the viability, T/C [5] of the same compound?
Answer: Its viability, T/C is 93.2%.

Question: And the viability, T/C [6]?
Answer: The viability, T/C was 81.7%.

Question: What about the viability, T/C (second compound 1 µM, first compound 0.000316 µM) of the same compound?
Answer: The viability, T/C was 83.9%.

Question: What about the viability, T/C (second compound 1 µM, first compound 0.001 µM) of the same compound?
Answer: Its viability, T/C is 93.7%.

Question: What about the viability, T/C (second compound 1 µM, first compound 0.00316 µM) of the same compound?
Answer: Its viability, T/C is 95.4%.

Question: And the viability, T/C (second compound 1 µM, first compound 0.01 µM)?
Answer: Its viability, T/C is 84.3%.

Question: And the viability, T/C [7]?
Answer: Its viability, T/C is 93.8%.

Question: What about the viability, T/C [8] of the same compound?
Answer: The viability, T/C was 67.7%.

Question: What about the viability, T/C (second compound 3.16 µM, first compound 0.000316 µM) of the same compound?
Answer: The viability, T/C was 79.7%.

Question: What about the viability, T/C (second compound 3.16 µM, first compound 0.001 µM) of the same compound?
Answer: Its viability, T/C is 94.4%.

Question: And the viability, T/C (second compound 3.16 µM, first compound 0.00316 µM)?
Answer: The viability, T/C was 80.9%.

Question: What about the viability, T/C (second compound 3.16 µM, first compound 0.01 µM) of the same compound?
Answer: The viability, T/C was 74%.

Question: What about the viability, T/C [9] of the same compound?
Answer: Its viability, T/C is 76.8%.

Question: And the viability, T/C [10]?
Answer: Its viability, T/C is 69.2%.

Question: What about the viability, T/C (second compound 10 µM, first compound 0.000316 µM) of the same compound?
Answer: Its viability, T/C is 69.7%.

Question: What about the viability, T/C (second compound 10 µM, first compound 0.001 µM) of the same compound?
Answer: The viability, T/C was 82.3%.

Question: What about the viability, T/C (second compound 10 µM, first compound 0.00316 µM) of the same compound?
Answer: The viability, T/C was 67.3%.

Question: And the viability, T/C (second compound 10 µM, first compound 0.01 µM)?
Answer: The viability, T/C was 68.3%.

Question: And the viability, T/C [11]?
Answer: The viability, T/C was 65.7%.

Question: And the viability, T/C [12]?
Answer: Its viability, T/C is 56%.
